Measured values taken from patent US20240382629A1, “HETEROBIVALENT AND HOMOBIVALENT AGENTS TARGETING FIBROBLAST ACTIVATION PROTEIN ALPHA AND/OR PROSTATE-SPECIFIC MEMBRANE ANTIGEN” (The Johns Hopkins University, priority 2021, published 2024).
“And” between values parts separate entries of the source, which are not always exact repeats. Equal entries are not always repeated.

Experiment: Biodistribution of representative compounds ([^18F]Sri-07-56, [^18F]Sri-07-52, [^18F]JHU1221823, [^18F]FAPI-74), tissue % ID/g with carrier or blocker
Type: in vivo, mouse
Settings: 20 μCi per mouse; for Bladder % ID/g / Blood % ID/g / Brain % ID/g / Fat % ID/g / Femur % ID/g / Heart % ID/g / Kidney % ID/g / Large intestine % ID/g / Liver % ID/g / Lung % ID/g / Muscle % ID/g / Pancreas % ID/g / Salivery gland % ID/g / Small intestine % ID/g / Spleen % ID/g / Stomach % ID/g / Tumor % ID/g: individual mice
Text: Biodistribution of Representative Compounds

For N#C[C@@H]1CCCN1C(=O)CNC(=O)c1ccnc2ccc(OCCCNC(=O)CCOCCOCCOCCOCCNC(=O)[C@H](CCCCNC(=O)c3ccc([18F])nc3)NC(=O)CN3CCN(CC(=O)O)CCN(CC(=O)O)CCN(CC(=O)O)CC3)cc12 [[^18F]JHU1221823], the “Bladder % ID/g Mean” value (60 min) was 4.53 % ID/g, the “Blood % ID/g Mean” value (60 min) was 9.54 % ID/g and the “Brain % ID/g Mean” value (60 min) was 0.22 % ID/g. The “Fat % ID/g Mean” value (60 min) was 1.07 % ID/g, the “Femur % ID/g Mean” value (60 min) was 2.83 % ID/g and the “Heart % ID/g Mean” value (60 min) was 4.65 % ID/g. The “Kidney % ID/g Mean” value (60 min) was 2.73 % ID/g, the “Large intestine % ID/g Mean” value (60 min) was 1.49 % ID/g and the “Liver % ID/g Mean” value (60 min) was 2.99 % ID/g. For the same molecule, the “Lung % ID/g Mean” value (60 min) was 5.72 % ID/g, the “Muscle % ID/g Mean” value (60 min) was 1.78 % ID/g and the “Pancreas % ID/g Mean” value (60 min) was 2.14 % ID/g. The “Salivary gland % ID/g Mean” value (60 min) was 6.93 % ID/g, the “Small intestine % ID/g Mean” value (60 min) was 3.02 % ID/g and the “Spleen % ID/g Mean” value (60 min) was 2.15 % ID/g. For the same molecule, the “Stomach % ID/g Mean” value (60 min) was 1.14 % ID/g, the “Tumor % ID/g Mean” value (60 min) was 5.71 % ID/g and the “Bladder % ID/g” value (60 min) was 6.41 % ID/g and 2.64 % ID/g. The “Blood % ID/g” value (60 min) was 9.28 % ID/g and 9.80 % ID/g, the “Brain % ID/g” value (60 min) was 0.23 % ID/g and 0.22 % ID/g and the “Fat % ID/g” value (60 min) was 0.47 % ID/g and 1.68 % ID/g. For the same molecule, the “Femur % ID/g” value (60 min) was 2.55 % ID/g and 3.11 % ID/g, the “Heart % ID/g” value (60 min) was 4.31 % ID/g and 4.98 % ID/g and the “Kidney % ID/g” value (60 min) was 2.70 % ID/g and 2.77 % ID/g. For the same molecule, the “Large intestine % ID/g” value (60 min) was 1.29 % ID/g and 1.69 % ID/g, the “Liver % ID/g” value (60 min) was 2.68 % ID/g and 3.29 % ID/g and the “Lung % ID/g” value (60 min) was 5.53 % ID/g and 5.91 % ID/g. The “Muscle % ID/g” value (60 min) was 1.79 % ID/g and 1.78 % ID/g, the “Pancreas % ID/g” value (60 min) was 1.62 % ID/g and 2.66 % ID/g and the “Salivery gland % ID/g” value (60 min) was 7.44 % ID/g and 6.43 % ID/g. The “Small intestine % ID/g” value (60 min) was 2.59 % ID/g and 3.46 % ID/g, the “Spleen % ID/g” value (60 min) was 1.86 % ID/g and 2.43 % ID/g and the “Stomach % ID/g” value (60 min) was 0.84 % ID/g and 1.45 % ID/g. For the same molecule, the “Tumor % ID/g” value (60 min) was 4.35 % ID/g and 7.05 % ID/g, the “Bladder % ID/g Mean” value (120 min) was 1.92 % ID/g and the “Blood % ID/g Mean” value (120 min) was 6.28 % ID/g. The “Brain % ID/g Mean” value (120 min) was 0.18 % ID/g, the “Fat % ID/g Mean” value (120 min) was 1.45 % ID/g and the “Femur % ID/g Mean” value (120 min) was 1.61 % ID/g. The “Heart % ID/g Mean” value (120 min) was 3.49 % ID/g, the “Kidney % ID/g Mean” value (120 min) was 1.93 % ID/g and the “Large intestine % ID/g Mean” value (120 min) was 1.38 % ID/g. For the same molecule, the “Liver % ID/g Mean” value (120 min) was 2.18 % ID/g, the “Lung % ID/g Mean” value (120 min) was 3.65 % ID/g and the “Muscle % ID/g Mean” value (120 min) was 1.16 % ID/g. The “Pancreas % ID/g Mean” value (120 min) was 4.67 % ID/g, the “Salivary gland % ID/g Mean” value (120 min) was 8.11 % ID/g and the “Small intestine % ID/g Mean” value (120 min) was 2.04 % ID/g. The “Spleen % ID/g Mean” value (120 min) was 1.58 % ID/g, the “Stomach % ID/g Mean” value (120 min) was 1.24 % ID/g and the “Tumor % ID/g Mean” value (120 min) was 2.91 % ID/g. For the same molecule, the “Bladder % ID/g” value (120 min) was 2.63 % ID/g and 1.21 % ID/g, the “Blood % ID/g” value (120 min) was 5.77 % ID/g and 6.78 % ID/g and the “Brain % ID/g” value (120 min) was 0.19 % ID/g and 0.17 % ID/g. For the same molecule, the “Fat % ID/g” value (120 min) was 0.97 % ID/g and 1.93 % ID/g, the “Femur % ID/g” value (120 min) was 1.71 % ID/g and 1.91 % ID/g and the “Heart % ID/g” value (120 min) was 3.18 % ID/g and 3.79 % ID/g. The “Kidney % ID/g” value (120 min) was 1.61 % ID/g and 2.24 % ID/g, the “Large intestine % ID/g” value (120 min) was 1.40 % ID/g and 1.36 % ID/g and the “Liver % ID/g” value (120 min) was 1.94 % ID/g and 2.42 % ID/g. The “Lung % ID/g” value (120 min) was 3.13 % ID/g and 4.16 % ID/g, the “Muscle % ID/g” value (120 min) was 1.18 % ID/g and 1.15 % ID/g and the “Pancreas % ID/g” value (120 min) was 4.03 % ID/g and 5.32 % ID/g. The “Salivery gland % ID/g” value (120 min) was 5.17 % ID/g and 11.05 % ID/g, the “Small intestine % ID/g” value (120 min) was 1.88 % ID/g and 2.21 % ID/g and the “Spleen % ID/g” value (120 min) was 1.49 % ID/g and 1.67 % ID/g. For the same molecule, the “Stomach % ID/g” value (120 min) was 1.11 % ID/g and 1.37 % ID/g and the “Tumor % ID/g” value (120 min) was 2.88 % ID/g and 2.94 % ID/g.
